# Reference: PubChem BioAssay (NCI)
#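 Cells were grown in 96-well plates and exposed to each compound for 48 hours at five concentrations; endpoints were interpolated linearly between bracketing concentrations, or set to the highest concentration if not reached. The concentration for 50% growth inhibition is given as GI50. TGI: total growth inhibition.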
# How the values were obtained:
# Experiment in all cases: NCI anticancer screen, dose series, 48 h
# [1] = tested on: SF-268 CNS
# [2] = tested on: SR leukemia
# [3] = tested on: NCI-H522 lung
# [4] = tested on: MOLT-4 leukemia
# [5] = tested on: HOP-62 NSCLC
# [6] = tested on: SW-620 colon
# [7] = tested on: LOX IMVI melanoma
# [8] = tested on: HCT-116 colon
# [9] = tested on: OVCAR-8 ovarian
# [10] = tested on: NCI-H23 lung
SMILES,TGI [1] [µM],TGI [2] [µM],TGI [3] [µM],TGI [4] [µM],TGI [5] [µM],TGI [6] [µM],TGI [7] [µM],TGI [8] [µM],TGI [9] [µM],TGI [10] [µM],GI50 [1] [µM],GI50 [2] [µM],GI50 [3] [µM],GI50 [4] [µM],GI50 [5] [µM],GI50 [6] [µM],GI50 [7] [µM],GI50 [8] [µM],GI50 [9] [µM],GI50 [10] [µM]
c1ccc2c(c1)C1=NCCN1c1ccccc1-2,11,2.41,3.13,8.99,13.3,11.6,10.4,10.4,11.5,6.65,–,–,–,–,–,–,–,–,–,–
O=C1OC(CN2CCOCC2)CN1/N=C/c1ccc([N+](=O)[O-])o1 (stereo not drawn),> 100,> 100,72.3,> 100,> 100,> 100,59.6,39.3,> 100,53.9,–,–,–,–,–,–,–,–,–,–
CC(C)c1cc(OCC(O)CO)cc(C(C)C)c1 (stereo not drawn),> 100,> 100,> 100,> 100,> 100,> 100,> 100,> 100,> 100,> 100,–,–,–,–,–,–,–,–,–,–
Cc1cccc2c(N)c3ccccc3nc12,9.22,13.3,4.12,11.1,5.3,11.9,3.66,11.2,10.7,7.49,1.5,0.727,1.45,0.556,0.854,0.699,0.616,0.454,0.94,1.81
Cc1nc(Nc2nc3ccccc3o2)nc(-c2cccc([N+](=O)[O-])c2)c1C(=O)Nc1ccc(F)c(Cl)c1,> 100,15.1,5.71,16.9,50.4,> 100,> 100,> 100,> 100,18.8,3.3,2.6,1.39,3.24,2.58,3.09,2.78,1.98,2.44,2.19
CC(=O)Oc1ccc(C(c2ccc(OC(C)=O)cc2)c2ccccn2)cc1,> 100,> 100,> 100,> 100,> 100,> 100,> 100,> 100,> 100,> 100,> 87.9,> 100,59,40.5,> 58.3,–,52.7,40.7,21.8,5.08
CNC(=O)OCC1C2=C(C(=O)C(C)=C(N)C2=O)N2CC3C(N3C)C12OC (stereo not drawn),–,> 100,19.2,36.9,> 100,24.2,33.9,30.4,> 100,16.3,–,–,–,–,–,–,–,–,–,–
N#CC1=C(Cl)NC(Cl)=C(C#N)C1c1c(Cl)cccc1Cl,99.6,> 100,38.1,> 100,> 100,27,31,34.3,80,> 100,–,–,–,–,–,–,–,–,–,–
O=C1OC(c2ccccc2)=N/C1=C\c1cccc(F)c1,> 100,56.4,40.1,67.9,92.6,> 100,45.6,> 100,64.9,> 100,–,–,–,–,–,–,–,–,–,–
Cn1cnc([N+](=O)[O-])c1Sc1ncn[nH]1,> 100,> 100,> 100,> 100,> 100,> 100,> 100,> 100,> 100,> 100,> 100,35.1,19.8,> 100,> 100,61.1,> 100,> 100,> 100,99.5
O=C(/C=C1/Nc2ccc([N+](=O)[O-])cc2NC1O)c1cccc([N+](=O)[O-])c1 (stereo not drawn),> 100,> 100,> 100,> 100,> 100,> 100,> 100,> 100,48.7,> 100,–,–,–,–,–,–,–,–,–,–
Cc1cc2c(cc1N)C(C)C1(CCC(=O)N2Cc2ccccc2)OCCO1 (stereo not drawn),> 100,> 100,> 100,> 100,> 100,> 100,> 100,> 100,> 100,> 100,–,–,–,–,–,–,–,–,–,–
COC(=O)[C@@H](C)C[C@H](Cc1ccccc1)NC(=O)c1csc([C@@H](C[C@H](C(C)C)N(C)C(=O)[C@H](C)NC(=O)[C@H]2CCCCN2C)OC(C)=O)n1,> 25,> 25,1.35,> 25,> 25,> 25,> 25,> 25,> 25,> 25,1.65,0.452,0.384,2.22,3.27,0.861,1.74,0.774,3.67,7.55
